Assay results taken from patent US9925251B2, “Treatments for Mycobacterium tuberculosis” (priority 2011, dated 2018).
Entries after “also recorded” stand apart in the source; their conditions may differ. Where two headings read alike, the source gives them in different places. Starred links: 1 amine or outer side, 2 acyl side, 3 side chain; linkers in the order of their positions; H or OH if unused. Non-standard residues stand in square brackets, D forms with d. No end group written: not given here. *: point of attachment. Dpa(Dnp) = O=C([C@H](CNc1ccc([N+](=O)[O-])cc1[N+](=O)[O-])N[*:1])[*:2]; Mca = COc1ccc2c(CC(=O)*)cc(=O)oc2c1; Suc = O=C(CCC(=O)[*:2])[*:1]; Nle = CCCC[C@H](N)C(=O)O; Cbz = O=C(OCc1ccccc1)*; amc = not defined here

Columns and labels:
Mtb ClpP1P2 [1] = biological target: T1, Mtb ClpP1P2 (Mycobacterium tuberculosis, UniProt P9WPC3+P9WPC5); assay type: biochemical; settings: for cleavage by ClpP1P2 (in words): activator present
Mtb ClpP1P2 [2] = biological target: T1, Mtb ClpP1P2; assay: biochemical; assay type: biochemical
Mtb ClpP1P2 [3] = biological target: T1, Mtb ClpP1P2; assay type: biochemical; settings: 10 best substrates each with Met, Leu, Phe, Ala at P1; library screening
Msm ptet_clpP2 = assay type: cell-based, Mycobacterium smegmatis; settings: for growth of strain: sub-MIC concentration
ClpC1 ATPase = ClpC1 ATPase (Mycobacterium tuberculosis, UniProt P9WPC9); assay type: biochemical
Mtb ClpP1P2 [4] = biological target: T1, Mtb ClpP1P2; assay type: biochemical
[5] = substance is the substrate, Z-Gly-Gly-Leu-amc = 100
[6] = Peptide Derivatives (1 mM), peptidase activity with Z-Gly-Gly-Leu-amc, Z-Leu-Leu-aldehyde 100.0
[7] = Peptide Aldehydes (0.5 mM), peptidase activity with Z-Gly-Gly-Leu-amc, maximal activation by Z-Leu-Nle-aldehyde taken as 100%
[8] = low concentration of ATc (ClpP2 partially depleted)

Chain of ClpC1 ATPase (P9WPC9 whole entry): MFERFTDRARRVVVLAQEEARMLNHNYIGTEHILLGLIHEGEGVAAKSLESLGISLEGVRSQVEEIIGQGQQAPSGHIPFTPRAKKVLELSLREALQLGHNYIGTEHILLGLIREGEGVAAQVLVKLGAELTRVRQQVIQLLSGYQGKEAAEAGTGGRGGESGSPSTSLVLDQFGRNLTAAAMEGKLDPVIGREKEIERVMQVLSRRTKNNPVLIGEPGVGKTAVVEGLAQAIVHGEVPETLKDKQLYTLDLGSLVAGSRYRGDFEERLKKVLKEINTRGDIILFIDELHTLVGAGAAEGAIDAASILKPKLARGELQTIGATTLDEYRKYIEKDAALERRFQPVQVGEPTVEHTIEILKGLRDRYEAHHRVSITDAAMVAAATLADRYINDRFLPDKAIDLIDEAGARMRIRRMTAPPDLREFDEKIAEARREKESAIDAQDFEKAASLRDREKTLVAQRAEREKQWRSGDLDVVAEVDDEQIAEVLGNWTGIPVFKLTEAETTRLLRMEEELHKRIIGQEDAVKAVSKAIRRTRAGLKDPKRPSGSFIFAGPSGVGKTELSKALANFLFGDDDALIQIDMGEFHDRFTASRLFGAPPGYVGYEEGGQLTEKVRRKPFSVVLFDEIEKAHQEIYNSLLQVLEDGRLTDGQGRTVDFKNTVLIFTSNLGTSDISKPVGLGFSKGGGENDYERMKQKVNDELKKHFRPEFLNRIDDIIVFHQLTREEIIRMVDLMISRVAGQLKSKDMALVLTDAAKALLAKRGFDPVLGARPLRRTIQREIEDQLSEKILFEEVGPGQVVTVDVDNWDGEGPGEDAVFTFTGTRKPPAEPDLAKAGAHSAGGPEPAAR

Z-Leu-Leu-Leu-amc
RELATIVE RATES OF HYDROLYSIS (%) (Mtb ClpP1P2 [1]; [5]): 0.15%

Cbz-Gly-Gly-Leu
RELATIVE ACTIVITY (%) (Mtb ClpP1P2 [2]; [6]): 3.7%

Cbz-Phe-Tyr-aldehyde
RELATIVE ACTIVITY (%) (Mtb ClpP1P2 [2]; [7]): 1.3%

N-acetyl-Pro-Lys-Met-aminomethylcoumarin [PKM]
Norm RFU (Mtb ClpP1P2 [3]): 1497

Z-Leu-Leu-alcohol
RELATIVE ACTIVITY (%) (Mtb ClpP1P2 [2]; [6]): 17.6% | stimulation of ClpP1P2 activity (in words) (Mtb ClpP1P2 [2]; against Z-Gly-Gly-Leu-AMC): could also activate ClpP1P2

Cbz-AP[Nle]D-aldehyde
RELATIVE ACTIVITY (%) (Mtb ClpP1P2 [2]; [7]): 0.8%

Z-Ala-Ala-Ala-amc
RELATIVE RATES OF HYDROLYSIS (%) (Mtb ClpP1P2 [1]; [5]): 3.6%

Cc1cc(=O)oc2cc(NC(=O)[C@@H](N)CC(C)C)ccc12 [Leu-amc]
RELATIVE RATES OF HYDROLYSIS (%) (Mtb ClpP1P2 [1]): 0.36%

Suc-Leu-Leu-Val-Tyr-amc (Suc-LLVY-amc; reading uncertain)
RELATIVE RATES OF HYDROLYSIS (%) (Mtb ClpP1P2 [1]; [5]): 0.8%

CC(C)C[C@H](NC(=O)OCc1ccccc1)C(=O)O [Z-Leu]
RELATIVE ACTIVITY (%) (Mtb ClpP1P2 [2]): 5.3% | stimulation of ClpP1P2 activity (in words) (Mtb ClpP1P2 [2]): much smaller stimulation

CC(C)C[C@@H](C=O)NC(=O)[C@H](CC(C)C)NC(=O)OCc1ccccc1 [Z-Leu-Leu-aldehyde]
Kd (Mtb ClpP1P2 [2]): 240 µM | RELATIVE ACTIVITY (%) (Mtb ClpP1P2 [2]; [7]): 77.6% | RELATIVE ACTIVITY (%) (Mtb ClpP1P2 [2]; [6]): 100.0% | stimulation of ClpP1P2 activity (in words) (Mtb ClpP1P2 [2]; against Z-Gly-Gly-Leu-AMC): strongest stimulation

Ac-Nle-Pro-Nle-Asp-amc
RELATIVE RATES OF HYDROLYSIS (%) (Mtb ClpP1P2 [1]; [5]): 36.0%

Z-Leu-Leu-Arg-amc
RELATIVE RATES OF HYDROLYSIS (%) (Mtb ClpP1P2 [1]; [5]): 0.25%

Z-Phe-Val-Arg-amc
RELATIVE RATES OF HYDROLYSIS (%) (Mtb ClpP1P2 [1]; [5]): 0.18%

Z-Leu-Leu-Glu-amc
RELATIVE RATES OF HYDROLYSIS (%) (Mtb ClpP1P2 [1]; [5]): 0.35%

[H]/N=C(/N)N[C@H]1[C@H](O)[C@@H](O)[C@H](O[C@@H]2O[C@@H](C)[C@](O)(C=O)[C@H]2O[C@@H]2O[C@@H](CO)[C@H](O)[C@@H](O)[C@@H]2NC)[C@@H](N/C(N)=N\[H])[C@@H]1O [streptomycin]
growth of strain (Msm ptet_clpP2; high concentration of ATc): no effect on growth | growth of strain (Msm ptet_clpP2; [8]): significantly inhibited the growth

Cbz-Gly-Leu-Leu
stimulation of ClpP1P2 activity (in words) (Mtb ClpP1P2 [2]; against Z-Gly-Gly-Leu-AMC): much smaller stimulation

NCC[C@H](O)C(=O)N[C@@H]1C[C@H](N)[C@@H](O[C@H]2O[C@H](CN)[C@@H](O)[C@H](O)[C@H]2O)[C@H](O)[C@H]1O[C@H]1O[C@H](CO)[C@@H](O)[C@H](N)[C@H]1O [amikacin]
growth of strain (Msm ptet_clpP2; high concentration of ATc): no effect on growth | growth of strain (Msm ptet_clpP2; [8]): significantly inhibited the growth

Suc-Ala-Leu-Pro-Phe-amc (Suc-ALPF-amc; reading uncertain)
RELATIVE RATES OF HYDROLYSIS (%) (Mtb ClpP1P2 [1]; [5]): 0.12%

Suc-Leu-Tyr-amc
RELATIVE RATES OF HYDROLYSIS (%) (Mtb ClpP1P2 [1]; [5]): 11.5%

Suc-Ala-Ala-Pro-Ala-amc (Suc-AAPA-amc; reading uncertain)
RELATIVE RATES OF HYDROLYSIS (%) (Mtb ClpP1P2 [1]; [5]): 0.08%

Asp-amc
RELATIVE RATES OF HYDROLYSIS (%) (Mtb ClpP1P2 [1]): 0.1%

Mca-KKPTPIQLN-Dpa(Dnp)-amide (Mca-KKPTPIQLN[Dpa(Dnp)]-NH2)
cleavage by ClpP1P2 (in words) (Mtb ClpP1P2 [1]; substance is the substrate): could cleave

Oc1c(Cl)cc(Cl)c(Cl)c1Cc1c(O)c(Cl)cc(Cl)c1Cl [hexachlorophene]
effect on ClpC1 ATPase activity (in words) (ClpC1 ATPase): inhibits | concentration at which the inhibitor works (ClpC1 ATPase; inhibition of ClpC1 ATPase activity): 5 to 10 mM

CC(C)C[C@H](NC(=O)[C@H](CC(C)C)NC(=O)OCc1ccccc1)C(=O)O [Z-Leu-Leu]
effect on ClpC1 ATPase activity (in words) (ClpC1 ATPase): did not influence | Kd (Mtb ClpP1P2 [2]): 2200 µM | RELATIVE ACTIVITY (%) (Mtb ClpP1P2 [2]; Active enzyme diluted (200x) without activator, then activator re-added): 96.0% | RELATIVE ACTIVITY (%) (Mtb ClpP1P2 [2]; Active enzyme diluted (200x), with activator): 100.0% | RELATIVE ACTIVITY (%) (Mtb ClpP1P2 [2]; Active enzyme diluted (200x), without activator): 1.2% | RELATIVE ACTIVITY (%) (Mtb ClpP1P2 [2]; [6]): 18.5% | stimulation of ClpP1P2 activity (in words) (Mtb ClpP1P2 [2]; against Z-Gly-Gly-Leu-AMC): could also activate ClpP1P2

Cc1cc(=O)oc2cc(NC(=O)C(C)N)ccc12 (stereo not drawn) [Ala-amc]
RELATIVE RATES OF HYDROLYSIS (%) (Mtb ClpP1P2 [1]): 0.78%

Mca-GHQQYAMK-Dpa(Dnp)-amide (Mca-GHQQYAMK[Dpa(Dnp)]-NH2)
cleavage by ClpP1P2 (in words) (Mtb ClpP1P2 [1]; substance is the substrate): could cleave

Z-Leu-Leu-amc
RELATIVE RATES OF HYDROLYSIS (%) (Mtb ClpP1P2 [1]; [5]): 4.7%

Z-Gly-Gly-Arg-amc
RELATIVE RATES OF HYDROLYSIS (%) (Mtb ClpP1P2 [1]; [5]): 0.55%

Z-Gly-Gly-Leu-amc
RELATIVE RATES OF HYDROLYSIS (%) (Mtb ClpP1P2 [1]; [5]): 100.0%

Z-Leu-Nle-aldehyde
RELATIVE ACTIVITY (%) (Mtb ClpP1P2 [2]; [7]): 100.0%

Mca-GNTQFKRR-Dpa(Dnp)-amide (Mca-GNTQFKRR[Dpa(Dnp)]-NH2)
cleavage by ClpP1P2 (in words) (Mtb ClpP1P2 [1]; substance is the substrate): could cleave

Z-Pro-Nlee-Asp-aldehyde
RELATIVE ACTIVITY (%) (Mtb ClpP1P2 [2]; [7]): 1.2% | stimulation of ClpP1P2 activity (in words) (Mtb ClpP1P2 [2]; against Z-Gly-Gly-Leu-AMC): did not show any stimulatory capacity

Z-Gly-Leu
RELATIVE ACTIVITY (%) (Mtb ClpP1P2 [2]; [6]): 4.8% | stimulation of ClpP1P2 activity (in words) (Mtb ClpP1P2 [2]; against Z-Gly-Gly-Leu-AMC): much smaller stimulation

O=c1oc(Cl)c(Cl)c2ccccc12 [dichloroisocoumarin]
inhibition of ClpP1P2 activity (in words) (Mtb ClpP1P2 [4]): sensitive; also recorded: completely inhibit

Suc-Ala-Ala-Phe-amc
RELATIVE RATES OF HYDROLYSIS (%) (Mtb ClpP1P2 [1]; [5]): 42.0%

CC(C)C[C@@H](CO)NC(=O)OCc1ccccc1 [Z-Leu-alcohol]
RELATIVE ACTIVITY (%) (Mtb ClpP1P2 [2]): 2.4%

Ala-Ala-Phe-amc
RELATIVE RATES OF HYDROLYSIS (%) (Mtb ClpP1P2 [1]; [5]): 87.0%

Mca-GNQQYKMK-Dpa(Dnp)-amide (Mca-GNQQYKMK[Dpa(Dnp)]-NH2)
cleavage by ClpP1P2 (in words) (Mtb ClpP1P2 [1]; substance is the substrate): could cleave

Cbz-Val-Phe-aldehyde
RELATIVE ACTIVITY (%) (Mtb ClpP1P2 [2]; [7]): 1.9% | stimulation of ClpP1P2 activity (in words) (Mtb ClpP1P2 [2]; against Z-Gly-Gly-Leu-AMC): did not show any stimulatory capacity

Cc1cc(=O)oc2cc(NC(=O)C(N)Cc3ccccc3)ccc12 (stereo not drawn) [Phe-amc]
RELATIVE RATES OF HYDROLYSIS (%) (Mtb ClpP1P2 [1]): 0.26%

Z-Leu-Leu-leucinal
stimulation of ClpP1P2 activity (in words) (Mtb ClpP1P2 [2]; against Z-Gly-Gly-Leu-AMC): significantly less active

O=C(N[C@H](CO)[C@H](O)c1ccc([N+](=O)[O-])cc1)C(Cl)Cl [chloramphenicol]
viability, low versus high ATc (Msm ptet_clpP2; sublethal concentration): no difference in viability
